According to paper PMC11889159 (Scientific Reports, 2025):
Values joined by “and” are separate entries in the source; they are usually repeats but may differ in a detail not shown here. Equal entries are not always repeated. Where two headings read alike, the source gives them in different places.

Columns and labels:
[1] = target: T1, bovine serum albumin (BSA) (Bos taurus, UniProt P02769); assay: biochemical
Text: The inner filter effect (IFE) arises when high analyte concentrations (e.g., fluorophores, ligands, or biomolecules) attenuate excitation light or absorb emitted photons, effectively reducing the optical path length and consequently causing depressed fluorescence readings. To mitigate this phenomenon in our experimental system, we strategically optimized sample concentrations through preliminary calibration studies.
Fluorescence quenching mechanisms can be categorized into static, dynamic, and combined quenching. […] Combined quenching involves both mechanisms, where the fluorophore collides with and forms a stable complex with the quencher. These processes can be described by the Stern-Volmer equation[49]: [drawing 1]
Where F0 and F are the fluorescence intensities in the absence and presence of the quencher, respectively; KSV is the Stern-Volmer quenching constant; [Q] is the quencher concentration; Kq is the bimolecular quenching constant; and τ0 is the fluorescence lifetime in the absence of the quencher (6.3 × 10^− 9 s)[50]. […] (unit: mol/L), and the Y-axis represents the fluorescence intensity ratio F0/F. The data points represent the experimentally measured F0/F values, while the solid line is the linear fit. […] The slope obtained from the linear fit according to the Stern-Volmer equation represents the quenching constant (KSV).
The binding constant (Kb) is calculated using the following formula: […]
Where Kb is the binding constant, n is the number of binding sites per BSA molecule, F0 and F are the fluorescence intensities without and with the quencher, respectively, and [Q] is the quencher concentration. Linear regression is used to fit the data, resulting in a straight line whose slope indicates n (the number of binding sites), and the intercept gives logKb.
Where R is 8.314 J·mol^-1·K^-1, T is 298 K (273 + 25 °C), and Kb is the calculated binding constant.
Fluorescence spectra were acquired using a Hitachi F-7100 fluorescence spectrophotometer equipped with a 150 W xenon lamp and 10 mm quartz cuvette. The instrument parameters were maintained at excitation and emission bandwidths of 10 nm, with a scanning speed of 1200 nm·min^− 1 and PMT voltage of 400 V throughout the experiments.

[2] = target: T1, bovine serum albumin (BSA); conditions: experimental ΔG versus docking ΔG at Site I
Method: The three-dimensional structure of BSA was obtained from the RCSB Protein Data Bank (PDB) database (https://www.rcsb.org/) (PDB ID: 4f5s). […] Open Babel 3.1.1 software was utilized to convert the sdf format files from the PubChem database to pdb format. […] Additionally, the molecular visualization was conducted using Pymol version 2.6.0a0 for 3D visualization and LigPlot + version 2.2.8 for 2D visualization.

[3] = target: T1, bovine serum albumin (BSA); conditions: for τave (average fluorescence lifetime): free BSA 3.72 ns
Text: In general, the fluorescence lifetime measurement is the most definitive method to distinguish between dynamic and static quenching.

[4] = target: T1, bovine serum albumin (BSA)
Method: UV absorption measurement is a simple yet effective technique for examining structural changes and complex formation. […] Variations in the absorbance near 280 nm signify interactions with small molecule drugs.
Absorption spectra were recorded using a UV-vis spectrophotometer (T6 New Century) over the wavelength range of 200–400 nm.

[5] = target: T1, bovine serum albumin (BSA); assay: biochemical; conditions: logKb
[6] = target: T1, bovine serum albumin (BSA); conditions: for λex/λem: pH 7.4
Text: Three-dimensional fluorescence spectroscopy, or excitation-emission matrix (EEM) spectroscopy, offers distinct advantages and broad applications for analyzing interactions between small molecules and BSA[55].
The excitation wavelength was systematically scanned from 220 to 350 nm with 5 nm increments, while the emission spectra were simultaneously recorded across the 220–500 nm range at a scanning speed of 12,000 nm min^− 1. The excitation and emission slit widths were maintained at 10 nm throughout the measurements to ensure consistent spectral resolution.

[7] = target: T1, bovine serum albumin (BSA); assay: biochemical; conditions: LogKb, pH 7.4
[8] = target: T1, bovine serum albumin (BSA); assay: Job's method, stoichiometry of inclusion complexation with BSA; format: binding; conditions: [BSA] + [TPT] = 2.0 × 10^-6 mol/L, λex 295 nm
[9] = target: T1, bovine serum albumin (BSA); conditions: van't Hoff plot, 293, 298 and 310 K, pH 7.4
[10] = design: method as in none printed; conditions: prolonged circulation; species and source not given; cited from earlier work
[11] = BSA 1 × 10^-6 mol/L, drug 5 × 10^-6 mol/L, λex 295 nm, λem 350 nm
[12] = BSA 1 × 10^-6 mol/L, drug 5 × 10^-6 mol/L
[13] = BSA 1.0 × 10^-6 mol/L, drug 5.0 × 10^-6 mol/L
[14] = BSA 1.0 × 10^-6 mol/L, drug 5.0 × 10^-6 mol/L, phosphate buffer, 298.15 K
[15] = Site marker: Blank (no marker), BSA 1.0 × 10^-6 mol/L
[16] = Site marker: Ibuprofen 2 × 10^-6 mol/L, BSA 1.0 × 10^-6 mol/L
[17] = Site marker: Warfarin 2 × 10^-6 mol/L, BSA 1.0 × 10^-6 mol/L
[18] = BSA 2 × 10^-6 mol/L, drug 0–33 × 10^-6 mol/L, pH 7.4, 298.15 K
[19] = BSA 2 × 10^-6 mol/L, pH 7.4, 298.15 K
[20] = BSA 2 × 10^-6 mol/L, phosphate buffer pH 7.40, λex 295 nm
[21] = slope of double logarithmic plot, 298 K
[22] = drug:BSA 5:1, Peak 1, BSA 3 × 10^-6 mol/L
[23] = drug:BSA 5:1, Peak 1, BSA alone 9750
[24] = drug:BSA 5:1, Peak 1, blue shift
[25] = drug:BSA 5:1, Peak 2, BSA 3 × 10^-6 mol/L
[26] = drug:BSA 5:1, Peak 2, BSA alone 7937
[27] = drug:BSA 5:1, Peak 2, blue shift
[28] = drug:BSA 10:1, Peak 1, BSA 3 × 10^-6 mol/L
[29] = drug:BSA 10:1, Peak 1, BSA alone 9750
[30] = drug:BSA 10:1, Peak 1, blue shift
[31] = drug:BSA 10:1, Peak 2, BSA 3 × 10^-6 mol/L
[32] = drug:BSA 10:1, Peak 2, BSA alone 7937
[33] = drug:BSA 10:1, Peak 2, blue shift

T1 sequence (P02769 25-607): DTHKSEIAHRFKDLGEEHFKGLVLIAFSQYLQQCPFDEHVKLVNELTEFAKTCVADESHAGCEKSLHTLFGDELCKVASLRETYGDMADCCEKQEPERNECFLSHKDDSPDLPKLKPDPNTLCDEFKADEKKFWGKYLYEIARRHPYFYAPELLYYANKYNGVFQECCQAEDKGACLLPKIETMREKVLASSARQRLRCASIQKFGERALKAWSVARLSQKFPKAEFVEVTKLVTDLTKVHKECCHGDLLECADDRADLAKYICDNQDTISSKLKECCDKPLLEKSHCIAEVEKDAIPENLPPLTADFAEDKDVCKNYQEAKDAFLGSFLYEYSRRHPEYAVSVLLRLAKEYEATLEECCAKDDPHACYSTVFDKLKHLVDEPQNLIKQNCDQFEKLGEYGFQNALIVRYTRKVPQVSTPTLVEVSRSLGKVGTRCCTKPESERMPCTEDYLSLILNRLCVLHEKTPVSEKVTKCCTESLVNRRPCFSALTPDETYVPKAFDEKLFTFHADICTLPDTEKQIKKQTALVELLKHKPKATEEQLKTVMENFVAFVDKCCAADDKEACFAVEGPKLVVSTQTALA

| Structure (SMILES) | Kd [1] | A1 (decay amplitude) [3, 11] | A2 (decay amplitude) [3, 11] | τ1 [3, 11] | τ2 [3, 11] | τave (average fluorescence lifetime) [3, 12] | blue shift of the UV absorption peak of BSA at 280 nm [4, 13] | Changes in absorption peaks (280 nm) [4, 14] | Kd [5, 15] | Kd [5, 16] | Kd [5, 17] | Stern–Volmer equation Slope [1, 18] | Ksv (Stern-Volmer quenching constant) [1, 19] | blue shift of the maximum fluorescence emission peak of BSA (Δλmax) [1, 20] | Kq (bimolecular quenching constant) ([1]; Kq = KSV/τ0, τ0 6.3 × 10^-9 s) | n (number of binding sites per BSA molecule) [1, 21] | λex/λem [6, 22] | Intensity [6, 23] | Emission maximum shift [6, 24] | λex/λem [6, 25] | other results |
| --- | --- | --- | --- | --- | --- | --- | --- | --- | --- | --- | --- | --- | --- | --- | --- | --- | --- | --- | --- | --- | --- |
| CC[C@@]1(O)C(=O)OCc2c1cc1n(c2=O)Cc2cc3cc(O)ccc3nc2-1 [10-HCPT, 10-Hydroxycamptothecin] | 121 µM | 0.8806 | 0.1858 | 2.239 ns | 7.483 ns | 4.41 ns | 2 nm | 280 nm→278 nm | 120 µM | 44.7 µM | 1510 µM |  |  |  |  |  |  |  |  |  | Kq (bimolecular quenching constant) [1]: 23.79 ×10^11 L·mol^− 1·s^− 1; n (number of binding sites per BSA molecule) [1]: 0.8809; Ksv (Stern-Volmer quenching constant) ([1]; pH 7.4): 14.99 ×10^3 L·mol^− 1; Stern–Volmer equation Slope ([1]; pH 7.4): 14986.88 ± 1787.60; blue shift of the maximum fluorescence emission peak of BSA (Δλmax) ([1]; pH 7.4): 11.8 nm; ΔΔG between experimental and theoretical binding energy [2]: ≈ 10.51 kJ·mol^−1; Emission maximum shift [6]: 15 nm; λex/λem [6]: 225/325 and 275/325 |
| CC[C@@]1(O)C(=O)OCc2c1cc1n(c2=O)Cc2cc3ccccc3nc2-1 [CPT, Camptothecin] | 236 µM | 0.7855 | 0.2263 | 1.889 ns | 5.78 ns | 3.71 ns | 3 nm | 280 nm→277 nm | 234 µM | 759 µM | 5500 µM | 18536.73 ± 2298.23 | 18.53 ×10^3 L·mol^− 1 | 1.4 nm | 29.41 ×10^11 L·mol^− 1·s^− 1 | 0.8287 | 275/340 | 3382 | 0 nm | 225/340 | Reduction percent (fluorescence intensity) ([6]; drug:BSA 5:1, Peak 1): 65%; Reduction percent (fluorescence intensity) ([6]; drug:BSA 5:1, Peak 2): 30%; Intensity [6, 26]: 5518; Emission maximum shift [6, 27]: 0 nm; Reduction percent (fluorescence intensity) ([6]; drug:BSA 10:1, Peak 1): 67%; λex/λem [6, 28]: 275/340; Intensity [6, 29]: 3179; Emission maximum shift [6, 30]: 0 nm; Reduction percent (fluorescence intensity) ([6]; drug:BSA 10:1, Peak 2): 33%; λex/λem [6, 31]: 225/340; Intensity [6, 32]: 5323; Emission maximum shift [6, 33]: 0 nm |
| CCc1c2c(nc3ccc(OC(=O)N4CCC(N5CCCCC5)CC4)cc13)-c1cc3c(c(=O)n1C2)COC(=O)[C@]3(O)CC [CPT-11, Irinotecan] |  |  |  |  |  |  |  |  |  |  |  |  |  |  |  |  |  |  |  |  | τ2 [3]: 7.79 ns; Changes in absorption peaks (280 nm) [4]: 280 nm→258 nm |
| CC[C@@]1(O)C(=O)OCc2c1cc1n(c2=O)Cc2cc3c(CN(C)C)c(O)ccc3nc2-1 [TPT, Topotecan] | 11 µM | 0.8636 | 0.1543 | 1.699 ns | 7.6602 ns | 4.36 ns | 12 nm | 280 nm→268 nm |  |  |  | 29101.32 ± 782.38 | 29.10 ×10^3 L·mol^− 1 | 1.0 nm | 46.19 ×10^11 L·mol^− 1·s^− 1 | 1.1165 | 275/340 | 8453 | 0 nm | 225/340 | Kd ([7]; 293 K): 3.98 µM; Kd ([7]; 298 K): 4.37 µM; Kd ([7]; 310 K): 5.13 µM; molar fraction at maximum fluorescence intensity change (Job's plot) [8]: 0.5; KSV ([1]; as quoted in the discussion of Table 2): 29.10 × 10^2 M^− 1; Kd [5]: 12.6 µM and 6.61 µM and 12 µM; ΔS [9]: 0.066 kJ·mol^− 1·K^− 1; circulation t1/2 [10]: ≈ 8 h; Intensity [6, 26]: 5380; Emission maximum shift [6, 27]: 0 nm; λex/λem [6, 28]: 275/325; Intensity [6, 29]: 4956; Emission maximum shift [6, 30]: 15 nm; λex/λem [6, 31]: 225/320; Intensity [6, 32]: 2777; Emission maximum shift [6, 33]: 20 nm |
